This is an account of results in US9572792B2, “Coumarin compounds as receptor modulators with therapeutic utility” (Allergan, Inc., priority 2009, dated 2017).

The target of this assay is human S1P1 receptor (Homo sapiens (Human), UniProt P21453). The assay can be described thus: GTP γ35S binding assay. It counts as biochemical. As to conditions: S1P1 receptor from GTP γ35S; membranes of cells stably expressing the S1P1 receptor. As for the experimental part:
The S1P1 activity of the compounds according to the invention, were tested using the GTP γ^35S binding assay. The compounds were assessed for their ability to activate or block activation of the human S1P1 receptor in cells stably expressing the S1P1 receptor.
GTP γ^35S binding was measured in the medium containing (mM) HEPES 25, pH 7.4, MgCl2 10, NaCl 100, dithiothreitol 0.5, digitonin 0.003%, 0.2 nM GTP γ^35S, and 5 μg membrane protein in a volume of 150 μl. Test compounds were included in the concentration range from 0.08 to 5,000 nM unless indicated otherwise. Membranes were incubated with 100 μM 5′-adenylylimidodiphosphate for 30 min, and subsequently with 10 μM GDP for 10 min on ice. Drug solutions and membrane were mixed, and then reactions were initiated by adding GTP γ^35S and continued for 30 min at 25° C. Reaction mixtures were filtered over Whatman GF/B filters under vacuum, and washed three times with 3 mL of ice-cold buffer (HEPES 25, pH7.4, MgCl2 10 and NaCl 100). Filters were dried and mixed with scintillant, and counted for ^35S activity using a 8-counter. Agonist-induced GTP γ^35S binding was obtained by subtracting that in the absence of agonist. Binding data were analyzed using a non-linear regression method. In case of antagonist assay, the reaction mixture contained 10 nM S1P in the presence of test antagonist at concentrations ranging from 0.08 to 5000 nM.
S1P1 receptor from GTP γ^35S: nM, (EC50),
On the technique in general: GTPγS resists hydrolysis and so accumulates on activated G proteins.

SMILES strings stand for the structures.

human S1P1 receptor, sequence (P21453 whole entry): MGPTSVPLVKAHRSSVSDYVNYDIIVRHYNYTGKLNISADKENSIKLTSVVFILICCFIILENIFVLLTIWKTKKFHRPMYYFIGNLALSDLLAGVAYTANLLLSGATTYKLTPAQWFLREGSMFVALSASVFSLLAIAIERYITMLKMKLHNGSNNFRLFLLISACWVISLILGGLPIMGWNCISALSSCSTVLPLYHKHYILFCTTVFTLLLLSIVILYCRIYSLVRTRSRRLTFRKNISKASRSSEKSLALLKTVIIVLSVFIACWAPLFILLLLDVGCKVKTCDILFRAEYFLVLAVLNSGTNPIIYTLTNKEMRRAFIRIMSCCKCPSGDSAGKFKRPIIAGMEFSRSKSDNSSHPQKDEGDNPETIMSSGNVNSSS

Consider `CCCc1c(OC)ccc2cc(C(=O)Nc3ccccc3Br)c(=O)oc12` [Compound 5, N-(2-bromophenyl)-7-methoxy-2-oxo-8-propyl-2H-chromene-3-carboxamide], for which the concentration giving a half-maximal response (EC50) is 26.4 nM.
As for `CCCc1c(OC)ccc2cc(C(=O)Nc3ccncc3Br)c(=O)oc12` [Compound 6, N-(3-bromopyridin-4-yl)-7-methoxy-2-oxo-8-propyl-2H-chromene-3-carboxamide], it took 19 nM to reach a half-maximal effect (EC50).
In turn, `CCCc1c(OC)ccc2cc(C(=O)Nc3ccc(S(N)(=O)=O)cc3Br)c(=O)oc12` [Compound 38, N-[4-(aminosulfonyl)-2-bromophenyl]-7-methoxy-2-oxo-8-propyl-2H-chromene-3-carboxamide] came in with an EC50 of 3.5 nM.
`CCCc1c(OC)ccc2cc(C(=O)Nc3ccc(NC(=O)[C@H](N)CCC(=O)O)cc3C)c(=O)oc12` [Compound 62, (4R)-4-amino-5-[(4-{[(7-methoxy-2-oxo-8-propyl-2H-chromen-3-yl)carbonyl]amino}-3-methylphenyl)amino]-5-oxopentanoic acid] came in with an EC50 of 3.1 nM.

Broadly, the EC50 is the midpoint of the concentration-response curve. A higher EC50 goes with a need for much substance.
